Counter-ions that a name gives are not always drawn.
Tests used:
[1] = Acute toxicity in white mice with subcutaneous application; details: mouse, in vivo, sc
From the text: *The toxicity in mg/kg body weight is understood as acute toxicity in
white mice with subcutaneous application.

antimicrobial = details: known compound, background statement; cited from earlier work
[2] = known compound, background statement; cited from earlier work
[3] = known compound, background statement; cited from earlier work; remark: listed apart in the source
Gram-Positive Bacteria = assay: Effectiveness against gram-positive bacteria (general statement); assay type: cell-based; details: in words
Solubility in water = assay type: physicochemical; details: in words
Stability = assay type: physicochemical; details: in words

Row | SMILES | LD50 [1] [mg/kg] | solubility in water (Solubility in water) | other results
1 | Cc1cc(Cc2ccccc2)cc(Cl)c1O [2-chloro-6-methyl-4-benzylphenol] | 1200 | – | antimicrobial efficacy (antimicrobial): generally good antimicrobial efficacy; skin compatibility [2]: well skin-compatible; water-solubility [3]: difficult water-solubility
2 | CCc1cc(Cc2ccccc2)cc(Br)c1O [2-bromo-6-ethyl-4-benzylphenol, 6-bromo-2-ethyl-4-benzylphenol] | 2800 | – | –
3 | Cc1cc(Cc2ccccc2)cc(Br)c1O [2-bromo-6-methyl-4-benzylphenol, 6-bromo-2-methyl-4-benzylphenol] | 1500 | – | –
4 | Cc1cc(Cc2ccccc2)cc(Cl)c1O [calcium salt of 2-chloro-6-methyl-4-benzylphenol] [calcium salt of 6-chloro-2-methyl-4-benzylphenol] | – | only little soluble in water | effectiveness against gram-positive bacteria (Gram-Positive Bacteria): particularly effective; stability (Stability): very stable
5 | Cc1cc(Cc2ccccc2)cc(Cl)c1O [sodium salt of 6-chloro-2-methyl-4-benzylphenol] | – | well water-soluble | –
6 | Cc1cc(Cc2ccccc2)cc(Cl)c1O [potassium salt of 6-chloro-2-methyl-4-benzylphenol] | – | good | –

Reference: patent publication US4532367A, “Antimicrobially effective derivatives of phenol and methods for their production” (VEB Jenapharm, priority 1981, dated 1985)
